Ten molecules from patent US10759783B2, “Biaryl inhibitors of Bruton'S tyrosine kinase” (BIOGEN MA INC., priority 2013, dated 2020) can be followed below.

SMILES strings stand for the structures. Bounds are passed on as bounds.

For one test, the target named is T1, BTK enzyme (Homo sapiens, UniProt Q06187).
T1 construct: purchased Upstate 14-552
As to the kind of experiment: In vitro BTK kinase assay: BTK-POLYGAT-LS assay. In kind it is biochemical. The following applies: ATP 10 μM, read-out: IC50 (10uMATP). Put shortly: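 Human BTK activity was measured with final 10 μM ATP and 100 nM polyGAT substrate in pH 7.5 Tris buffer with 10 mM MgCl2, DTT, Triton X-100 and casein.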

The target of test [1] is BTK (phospho-BTK) in human whole blood (Homo sapiens, UniProt Q06187). As to the kind of experiment: In vitro PD assay in human whole blood (pBTK assay).
BTK (phospho-BTK) in human whole blood, sequence (Q06187 whole entry): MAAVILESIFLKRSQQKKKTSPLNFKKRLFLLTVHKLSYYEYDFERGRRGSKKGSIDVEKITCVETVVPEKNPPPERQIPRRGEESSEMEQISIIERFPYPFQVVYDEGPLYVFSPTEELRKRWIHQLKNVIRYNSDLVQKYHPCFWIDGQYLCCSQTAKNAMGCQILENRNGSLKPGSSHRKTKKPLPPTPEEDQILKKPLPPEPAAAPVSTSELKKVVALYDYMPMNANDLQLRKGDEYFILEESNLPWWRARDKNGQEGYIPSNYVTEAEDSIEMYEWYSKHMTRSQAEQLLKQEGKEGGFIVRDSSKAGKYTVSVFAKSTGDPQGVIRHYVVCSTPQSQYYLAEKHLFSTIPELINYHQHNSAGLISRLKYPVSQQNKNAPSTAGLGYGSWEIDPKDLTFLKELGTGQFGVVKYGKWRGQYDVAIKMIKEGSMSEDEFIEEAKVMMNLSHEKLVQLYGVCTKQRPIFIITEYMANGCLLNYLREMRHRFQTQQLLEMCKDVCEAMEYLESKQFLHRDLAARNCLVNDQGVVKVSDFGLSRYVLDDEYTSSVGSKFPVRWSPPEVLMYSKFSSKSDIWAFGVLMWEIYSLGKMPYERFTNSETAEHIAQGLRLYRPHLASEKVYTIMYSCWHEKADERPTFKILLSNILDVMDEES

T1 sequence (Q06187 whole entry): as above

In the case of `COCCn1cc(Nc2nccc(-c3ccc(CNC(=O)N4CC(OC(C)(C)C)C4)c(C)c3)n2)cn1` [Example I-304, 3-tert-butoxy-N-[[4-[2-[[1-(2-methoxyethyl)pyrazol-4-yl)amino]pyrimidin-4-yl]-2-methyl-phenyl]methyl]azetidine-1-carboxamide], the IC50 at BTK enzyme is under 10 nM; in test [1], under 500 nM.
The corresponding values for `Cn1cc(Nc2nccc(-c3ccc(CNC(=O)c4cnn(C(C)(C)C)c4)c(Cl)c3)n2)cn1` [Example I-291, 1-tert-butyl-N-[[2-chloro-4-[2-[(1-methylpyrazol-4-yl)amino]pyrimidin-4-yl]phenyl]methyl]pyrazole-4-carboxamide] are under 10 nM and under 500 nM.
As to `CC(C)OC1CN(C(=O)NCc2ccc(-c3ccnc(Nc4cnn([C@@H]5CCOC5)c4)n3)cc2C(F)(F)F)C1` [Example I-314, 3-isopropoxy-N-[[4-[2-[[1-[(3R)-tetrahydrofuran-3-yl]pyrazol-4-yl]amino]pyrimidin-4-yl]-2-(trifluoromethyl)phenyl]methyl]azetidine-1-carboxamide], the values for the half-inhibitory concentration (IC50) (at BTK enzyme; in test [1]) were under 10 nM and under 500 nM, respectively.
In the case of `Cc1cc(-c2ccnc(Nc3cnn(C(C)C)c3)n2)ccc1CNC(=O)N1CC(OC(C)C)C1` [Example I-259, 3-isopropoxy-N-[[4-[2-[(1-isopropylpyrazol-4-yl)amino]pyrimidin-4-yl]-2-methyl-phenyl]methyl]azetidine-1-carboxamide], the half-inhibitory concentration (IC50) is under 10 nM at BTK enzyme and under 500 nM in test [1].
For `Cc1cc(-c2cc(Nc3cc4n(n3)CCN(C)C4=O)ncn2)ccc1CNC(=O)c1cnc(C(C)(C)C)s1` [Example I-278, 2-tert-butyl-N-[[2-methyl-4-[6-[(5-methyl-4-oxo-6,7-dihydropyrazolo[1,5-a]pyrazin-2-yl)amino]pyrimidin-4-yl]phenyl]methyl]thiazole-5-carboxamide] the same measures were under 10 nM and under 500 nM.
For `Cc1cc(-c2ccnc(Nc3cnn([C@H]4CC[C@@H](C(=O)O)CC4)c3)n2)ccc1CNC(=O)c1cnc(C(C)(C)C)s1` [Example I-48, cis-4-(4-((4-(4-((2-(tert-butyl)thiazole-5-carboxamido)methyl)-3-methylphenyl)pyrimidin-2-yl)amino)-1H-pyrazol-1-yl)cyclohexanecarboxylic acid] the same measures were under 10 nM and under 500 nM.
As for `COC1CN(C(=O)NC2CCCCc3cc(-c4ccnc(Nc5cnn(C)c5)n4)ccc32)C1` (centres unmarked) [Example I-339, 3-methoxy-N-[2-[2-[(1-methylpyrazol-4-yl)amino]pyrimidin-4-yl]-6,7,8,9-tetrahydro-5H-benzo[7]annulen-5-yl]azetidine-1-carboxamide], the results for the IC50 (on BTK enzyme; in test [1]) were 10 to 99 nM and under 500 nM, respectively.
The corresponding values for `CC(C)OC1CN(C(=O)NC2CCN(C3COC3)Cc3cc(-c4ccnc(Nc5cnn(C)c5)n4)ccc32)C1` (centres unmarked) [Example I-188, 3-isopropoxy-N-(8-(2-((1-methyl-1H-pyrazol-4-yl)amino)pyrimidin-4-yl)-2-(oxetan-3-yl)-2,3,4,5-tetrahydro-1H-benzo[c]azepin-5-yl)azetidine-1-carboxamide] are under 10 nM and 500 to 1500 nM.
The corresponding values for `CC(C)OC1CN(C(=O)NCc2ccc(-c3ccnc(Nc4cnn(C5CN(C)C5)c4)n3)cc2Cl)C1` [Example I-353, N-[[2-chloro-4-[2-[[1-(1-methylazetidin-3-yl)pyrazol-4-yl]amino]pyrimidin-4-yl]phenyl]methyl]-3-isopropoxy-azetidine-1-carboxamide] are under 10 nM and under 500 nM.
The corresponding values for `CC(C)(O)Cn1cc(Nc2nccc(-c3ccc4c(c3)CCCCC4NC(=O)N3CC(OC(C)(C)C)C3)n2)cn1` (centres unmarked) [Example I-337, 3-tert-butoxy-N-[2-[2-[[1-(2-hydroxy-2-methyl-propyl)pyrazol-4-yl]amino]pyrimidin-4-yl]-6,7,8,9-tetrahydro-5H-benzo[7]annulen-5-yl]azetidine-1-carboxamide] are under 10 nM and under 500 nM.
